Measurements reported in ChEMBL document CHEMBL5465560, “Selectivity Literature for EUbOPEN Chemogenomic Library” (2024).

How the values were obtained:
[1] = target: Casein kinase II subunit alpha (Homo sapiens, UniProt P68400); assay: Selectivity interaction (Kinase panel (KiNativ target engagement assay in Jurkat cells)) EUB0001635a CSNK2A1; assay type: cell-based; conditions: Selectivity number of off-targets 0.0, Selectivity number of targets 233.0, Source Knowledge https://www.sciencedirect.com/science/article/pii/S2451945619300674?via%3Dihub, at 1 µM
[2] = target: Serine/threonine-protein kinase PAK 6 (Homo sapiens) (UniProt Q9NQU5); assay: Selectivity interaction (KinomeScan (DiscoverX)) EUB0000045b PAK6
[3] = target: T1, Serine/threonine-protein kinase Nek11 (Homo sapiens) (UniProt Q8NG66); assay: Selectivity interaction (KinomeScan (DiscoverX)) EUB0000695a NEK11; conditions: at 100 nM
T1 sequence (whole entry): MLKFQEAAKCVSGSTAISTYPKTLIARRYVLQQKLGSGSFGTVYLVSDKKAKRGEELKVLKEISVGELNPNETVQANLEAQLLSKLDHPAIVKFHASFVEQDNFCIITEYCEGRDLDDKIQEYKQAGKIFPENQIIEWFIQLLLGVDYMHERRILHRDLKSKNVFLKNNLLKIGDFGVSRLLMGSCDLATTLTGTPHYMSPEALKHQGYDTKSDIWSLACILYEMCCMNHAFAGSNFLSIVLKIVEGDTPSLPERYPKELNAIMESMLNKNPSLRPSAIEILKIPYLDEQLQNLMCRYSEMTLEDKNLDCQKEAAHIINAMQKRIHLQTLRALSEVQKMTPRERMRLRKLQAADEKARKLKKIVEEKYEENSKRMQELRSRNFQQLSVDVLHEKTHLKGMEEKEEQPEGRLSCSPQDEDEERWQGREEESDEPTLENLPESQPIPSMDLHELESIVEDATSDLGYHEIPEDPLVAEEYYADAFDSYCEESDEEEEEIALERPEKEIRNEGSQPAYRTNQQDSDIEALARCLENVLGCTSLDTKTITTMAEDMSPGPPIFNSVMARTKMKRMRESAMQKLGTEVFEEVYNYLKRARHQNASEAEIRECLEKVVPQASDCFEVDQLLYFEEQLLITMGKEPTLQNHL

[4] = target: Cyclin-dependent kinase 2 (Homo sapiens, UniProt P24941); assay: Selectivity interaction (KinomeScan (DiscoverX)) EUB0000655a CDK2; conditions: at 10 µM
[5] = target: T2, Tyrosine-protein kinase ITK/TSK (Homo sapiens) (UniProt Q08881); assay: Selectivity interaction (KinomeScan (DiscoverX)) EUB0000092b ITK; conditions: at 10 µM
T2 sequence (whole entry): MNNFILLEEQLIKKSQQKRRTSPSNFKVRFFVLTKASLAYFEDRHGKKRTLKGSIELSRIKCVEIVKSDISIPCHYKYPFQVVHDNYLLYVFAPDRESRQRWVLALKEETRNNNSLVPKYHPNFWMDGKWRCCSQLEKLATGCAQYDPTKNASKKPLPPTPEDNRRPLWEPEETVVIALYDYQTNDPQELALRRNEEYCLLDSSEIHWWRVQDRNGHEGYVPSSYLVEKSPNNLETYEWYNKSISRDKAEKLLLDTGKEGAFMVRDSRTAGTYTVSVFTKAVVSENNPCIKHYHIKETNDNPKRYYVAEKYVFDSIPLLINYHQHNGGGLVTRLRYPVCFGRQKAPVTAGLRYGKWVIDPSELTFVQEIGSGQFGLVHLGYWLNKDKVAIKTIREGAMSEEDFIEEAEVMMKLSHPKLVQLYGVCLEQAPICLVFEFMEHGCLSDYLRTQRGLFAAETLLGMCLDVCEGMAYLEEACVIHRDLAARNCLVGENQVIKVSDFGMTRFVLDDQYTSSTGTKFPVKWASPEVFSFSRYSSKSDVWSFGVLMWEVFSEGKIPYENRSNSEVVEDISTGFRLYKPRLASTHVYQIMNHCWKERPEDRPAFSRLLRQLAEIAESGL

[6] = target: T3, Tyrosine-protein kinase Mer (Homo sapiens) (UniProt Q12866); assay: Selectivity interaction (KinomeScan (DiscoverX)) EUB0000092b MERTK; conditions: at 10 µM
T3 sequence (whole entry): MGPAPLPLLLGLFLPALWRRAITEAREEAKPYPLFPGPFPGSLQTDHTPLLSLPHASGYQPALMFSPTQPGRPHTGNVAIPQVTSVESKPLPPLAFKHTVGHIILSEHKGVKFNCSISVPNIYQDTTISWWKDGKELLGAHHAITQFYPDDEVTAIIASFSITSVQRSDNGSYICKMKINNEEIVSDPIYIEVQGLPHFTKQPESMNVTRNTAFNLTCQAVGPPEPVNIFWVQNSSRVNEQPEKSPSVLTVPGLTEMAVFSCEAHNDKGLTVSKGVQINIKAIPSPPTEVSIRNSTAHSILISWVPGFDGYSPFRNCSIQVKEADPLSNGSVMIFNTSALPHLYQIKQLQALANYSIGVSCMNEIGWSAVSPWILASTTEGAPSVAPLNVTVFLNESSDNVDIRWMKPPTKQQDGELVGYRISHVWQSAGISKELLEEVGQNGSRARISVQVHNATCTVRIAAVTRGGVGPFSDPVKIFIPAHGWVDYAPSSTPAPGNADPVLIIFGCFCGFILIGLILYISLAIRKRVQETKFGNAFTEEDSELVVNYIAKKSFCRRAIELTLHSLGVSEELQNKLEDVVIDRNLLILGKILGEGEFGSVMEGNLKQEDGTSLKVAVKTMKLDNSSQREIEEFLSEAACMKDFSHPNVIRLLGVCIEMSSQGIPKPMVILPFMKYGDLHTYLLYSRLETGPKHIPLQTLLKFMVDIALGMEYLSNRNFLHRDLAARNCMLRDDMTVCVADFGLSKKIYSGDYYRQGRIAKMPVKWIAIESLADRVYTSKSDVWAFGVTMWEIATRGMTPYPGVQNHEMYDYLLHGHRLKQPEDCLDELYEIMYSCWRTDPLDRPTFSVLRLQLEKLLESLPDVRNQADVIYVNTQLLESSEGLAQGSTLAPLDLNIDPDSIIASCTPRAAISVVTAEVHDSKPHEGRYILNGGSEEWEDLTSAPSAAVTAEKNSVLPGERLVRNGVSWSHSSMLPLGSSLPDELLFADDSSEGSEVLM

[7] = target: Serine/threonine-protein kinase PAK 4 (Homo sapiens, UniProt O96013); assay: Selectivity interaction (KinomeScan (DiscoverX)) EUB0000092b PAK4; conditions: at 10 µM
Sequence of Serine/threonine-protein kinase PAK 4 (O96013 whole entry, looked up): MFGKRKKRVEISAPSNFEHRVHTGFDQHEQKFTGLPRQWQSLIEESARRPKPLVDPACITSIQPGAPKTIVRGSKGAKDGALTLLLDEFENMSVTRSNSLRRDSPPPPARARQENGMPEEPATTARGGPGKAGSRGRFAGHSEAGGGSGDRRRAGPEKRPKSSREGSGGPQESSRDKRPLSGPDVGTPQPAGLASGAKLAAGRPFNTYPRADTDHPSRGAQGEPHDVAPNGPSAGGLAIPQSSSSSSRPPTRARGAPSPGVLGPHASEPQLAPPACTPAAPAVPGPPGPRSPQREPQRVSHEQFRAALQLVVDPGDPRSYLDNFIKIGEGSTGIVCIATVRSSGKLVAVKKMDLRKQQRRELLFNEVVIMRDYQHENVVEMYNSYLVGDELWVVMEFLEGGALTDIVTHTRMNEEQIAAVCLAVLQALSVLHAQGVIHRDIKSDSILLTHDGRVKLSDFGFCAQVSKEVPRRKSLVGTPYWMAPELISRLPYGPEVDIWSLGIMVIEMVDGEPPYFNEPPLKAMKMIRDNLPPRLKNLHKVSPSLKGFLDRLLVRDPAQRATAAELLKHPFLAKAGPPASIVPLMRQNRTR

Sequence of Serine/threonine-protein kinase PAK 6 (Homo sapiens) (Q9NQU5 whole entry, looked up): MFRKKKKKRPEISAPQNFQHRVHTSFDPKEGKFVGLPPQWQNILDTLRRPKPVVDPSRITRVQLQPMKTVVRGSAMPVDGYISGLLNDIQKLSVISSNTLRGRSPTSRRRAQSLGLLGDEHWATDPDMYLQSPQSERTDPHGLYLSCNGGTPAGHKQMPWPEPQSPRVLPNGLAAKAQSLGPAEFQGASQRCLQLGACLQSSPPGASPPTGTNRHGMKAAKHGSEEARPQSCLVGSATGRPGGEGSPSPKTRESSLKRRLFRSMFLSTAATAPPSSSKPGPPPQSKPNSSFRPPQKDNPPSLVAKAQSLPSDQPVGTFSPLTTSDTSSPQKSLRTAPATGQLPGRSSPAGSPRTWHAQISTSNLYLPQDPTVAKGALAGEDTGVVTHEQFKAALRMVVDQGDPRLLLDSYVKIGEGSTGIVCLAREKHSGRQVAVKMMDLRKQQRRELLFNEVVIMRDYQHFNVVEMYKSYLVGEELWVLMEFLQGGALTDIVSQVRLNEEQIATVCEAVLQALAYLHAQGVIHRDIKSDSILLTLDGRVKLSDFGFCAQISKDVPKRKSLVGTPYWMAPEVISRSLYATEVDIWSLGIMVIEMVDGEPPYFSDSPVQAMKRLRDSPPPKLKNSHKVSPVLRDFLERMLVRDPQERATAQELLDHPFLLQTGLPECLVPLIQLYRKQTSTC
Sequence of Casein kinase II subunit alpha (P68400 whole entry, looked up): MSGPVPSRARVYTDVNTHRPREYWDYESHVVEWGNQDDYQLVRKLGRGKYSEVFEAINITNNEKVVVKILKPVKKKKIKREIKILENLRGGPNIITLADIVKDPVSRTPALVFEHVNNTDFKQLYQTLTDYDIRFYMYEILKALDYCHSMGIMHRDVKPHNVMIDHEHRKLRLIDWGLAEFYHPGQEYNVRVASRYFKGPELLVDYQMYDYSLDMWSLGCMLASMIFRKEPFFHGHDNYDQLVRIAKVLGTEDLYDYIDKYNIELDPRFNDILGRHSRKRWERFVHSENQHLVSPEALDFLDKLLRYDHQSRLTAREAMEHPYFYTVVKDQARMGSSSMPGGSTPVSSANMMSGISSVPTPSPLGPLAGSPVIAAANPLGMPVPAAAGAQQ

C=CC(=O)Nc1ccc(C(=O)Nc2[nH]nc3c2CN(C(=O)N[C@H](CN(C)C)c2ccccc2)C3(C)C)cc1
% of engagement [1]: -4.8%

C=CC(=O)Nc1cc(-n2c(=O)ccc3cnc4ccc(-c5ccc(NS(C)(=O)=O)cc5)cc4c32)ccc1C
% of control ([2]; at 1 µM): 100%
% of control ([2]; at 10 µM): 73%

Cc1cc(F)c(C(=O)Nc2cccc(-c3nncn3C(C)C)n2)cc1-n1cnc(C2CC2)c1
% of control [3]: 78%

CN(C)CCOc1ccc(-c2nc(-c3ccncc3)c(-c3ccc4c(c3)CC/C4=N\O)[nH]2)cc1
% of control [4]: 100%

CCC(=O)N1CCN(c2ccc(-n3c(=O)ccc4cnc5ccc(-c6cnc7ccccc7c6)cc5c43)cc2C(F)(F)F)CC1
% of control [5]: 100%
% of control [6]: 53%
% of control [7]: 100%
